Source: patent US20240254119A1 (THIRD HARMONIC BIO, INC., priority 2022, published 2024)
≈ marks a conversion by molar mass, not a printed value.

Experiments:
wtKIT = target: T1, wtKIT (Homo sapiens, UniProt P10721); assay: Caliper biochemical assay, wtKIT; conditions: Table 6, read-out: KIT Biochemical IC50 avg
T1 construct: 1888289AM in the reaction mixtures
In short: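 Mobility-shift read-out: after EDTA stop, fluorescent peptide substrate and product resolved electrophoretically on LabChip 3000. Reaction ran 3 h at 25° C with 400 μM ATP, Mn^2+ cofactor, 5.0 nM wtKIT, 1 μM FAM-peptide, pH 7.5 HEPES buffer; no-enzyme wells defined full inhibition.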

[1] = target: T2, BCRP (BCRP-MDCKII monolayer) (Homo sapiens, UniProt Q9UNQ0); assay: MDCKII-BCRP bidirectional transport assay; format: in vitro ADME; conditions: for MDCK-BCRP: Papp A-B: apical to basolateral
T2 construct: host or cells: MDCKII (canine kidney) cells
T2 sequence (Q9UNQ0 1-655): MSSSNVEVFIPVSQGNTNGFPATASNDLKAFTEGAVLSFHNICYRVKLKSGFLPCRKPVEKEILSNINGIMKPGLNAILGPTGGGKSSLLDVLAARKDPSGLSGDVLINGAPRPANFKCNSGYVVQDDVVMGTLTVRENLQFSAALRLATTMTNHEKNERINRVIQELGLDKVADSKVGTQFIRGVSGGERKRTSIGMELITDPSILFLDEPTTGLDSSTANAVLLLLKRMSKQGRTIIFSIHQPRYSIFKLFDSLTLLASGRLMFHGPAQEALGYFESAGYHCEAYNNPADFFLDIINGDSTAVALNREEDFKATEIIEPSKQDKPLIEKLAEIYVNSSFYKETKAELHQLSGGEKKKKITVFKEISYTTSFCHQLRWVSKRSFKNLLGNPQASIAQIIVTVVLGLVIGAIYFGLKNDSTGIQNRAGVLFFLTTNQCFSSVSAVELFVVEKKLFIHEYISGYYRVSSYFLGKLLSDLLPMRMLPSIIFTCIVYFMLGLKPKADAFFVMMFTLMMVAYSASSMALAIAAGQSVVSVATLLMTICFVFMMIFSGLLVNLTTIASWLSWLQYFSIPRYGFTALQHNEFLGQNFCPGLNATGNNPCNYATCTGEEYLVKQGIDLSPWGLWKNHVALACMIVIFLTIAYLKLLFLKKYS
In short: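 Efflux ratios were derived from Papp values, alongside recovery, with compounds quantified by LC-MS/MS. Both directions were tested in duplicate across BCRP-MDCKII monolayers used on days 12–15. Incubation ran 120 min at 37° C, 5% CO2, after a 15 min preincubation in assay buffer.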

CSF-1R = target: T3, CSF-1R (Homo sapiens, UniProt P07333); assay: Caliper biochemical assay, CSF-1R; conditions: Table 6
T3 construct: purchased Invitrogen PV3249 (lot 662393N)
In short: (§1)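 Mobility-shift readout: after EDTA quench, fluorescent peptide and product are resolved electrophoretically on a LabChip and measured by fluorescence. Reactions contain enzyme, carboxyfluorescein peptide, ATP, Mn^2+ and compound, run 3 h at 25° C; 100% inhibition control lacks enzyme.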

PDGFRα = target: T4, PDGFRα (Homo sapiens, UniProt P16234); assay: Caliper biochemical assay, PDGFRα; conditions: Table 6
T4 construct: purchased Millipore 14-467 (lot 26321_ACTI)
In short: as §1

Kinetic solubility assay = format: physicochemical; conditions: for Solubility (μM): kinetic solubility, 50 mM PB (pH 7.4), shaken 24 hours at RT
In short: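 Concentration in the filtrate was determined by UPLC-UV or HPLC-UV with a standard curve. Before that, compound (10 mM DMSO stock) in 50 mM PB at pH 7.4 was agitated 24 h at room temperature, then PTFE-filtered with centrifugation.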

T3 sequence (P07333 20-972): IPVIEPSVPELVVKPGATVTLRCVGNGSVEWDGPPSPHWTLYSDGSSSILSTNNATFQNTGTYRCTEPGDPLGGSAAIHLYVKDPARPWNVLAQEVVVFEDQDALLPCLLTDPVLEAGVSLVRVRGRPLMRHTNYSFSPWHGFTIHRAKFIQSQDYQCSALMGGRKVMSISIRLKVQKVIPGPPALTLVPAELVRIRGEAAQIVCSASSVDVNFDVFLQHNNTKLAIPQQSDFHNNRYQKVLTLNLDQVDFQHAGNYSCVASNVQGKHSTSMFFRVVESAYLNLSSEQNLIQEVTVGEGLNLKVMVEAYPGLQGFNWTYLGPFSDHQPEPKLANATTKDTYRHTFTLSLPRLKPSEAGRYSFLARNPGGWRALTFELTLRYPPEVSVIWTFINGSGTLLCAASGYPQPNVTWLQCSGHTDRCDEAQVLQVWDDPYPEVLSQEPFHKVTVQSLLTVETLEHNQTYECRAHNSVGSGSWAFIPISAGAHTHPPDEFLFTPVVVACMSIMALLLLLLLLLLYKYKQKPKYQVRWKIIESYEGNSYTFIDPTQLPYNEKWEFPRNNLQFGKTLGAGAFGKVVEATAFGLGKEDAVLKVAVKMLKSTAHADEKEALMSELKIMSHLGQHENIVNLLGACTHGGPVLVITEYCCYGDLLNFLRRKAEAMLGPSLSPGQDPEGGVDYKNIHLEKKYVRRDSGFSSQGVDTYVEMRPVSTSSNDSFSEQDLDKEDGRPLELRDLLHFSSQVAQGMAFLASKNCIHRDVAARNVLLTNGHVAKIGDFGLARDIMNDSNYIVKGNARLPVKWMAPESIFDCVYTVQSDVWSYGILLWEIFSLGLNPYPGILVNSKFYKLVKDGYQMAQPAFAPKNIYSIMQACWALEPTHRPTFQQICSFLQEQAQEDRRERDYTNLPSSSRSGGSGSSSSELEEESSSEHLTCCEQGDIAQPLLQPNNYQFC
T4 sequence (P16234 24-1089): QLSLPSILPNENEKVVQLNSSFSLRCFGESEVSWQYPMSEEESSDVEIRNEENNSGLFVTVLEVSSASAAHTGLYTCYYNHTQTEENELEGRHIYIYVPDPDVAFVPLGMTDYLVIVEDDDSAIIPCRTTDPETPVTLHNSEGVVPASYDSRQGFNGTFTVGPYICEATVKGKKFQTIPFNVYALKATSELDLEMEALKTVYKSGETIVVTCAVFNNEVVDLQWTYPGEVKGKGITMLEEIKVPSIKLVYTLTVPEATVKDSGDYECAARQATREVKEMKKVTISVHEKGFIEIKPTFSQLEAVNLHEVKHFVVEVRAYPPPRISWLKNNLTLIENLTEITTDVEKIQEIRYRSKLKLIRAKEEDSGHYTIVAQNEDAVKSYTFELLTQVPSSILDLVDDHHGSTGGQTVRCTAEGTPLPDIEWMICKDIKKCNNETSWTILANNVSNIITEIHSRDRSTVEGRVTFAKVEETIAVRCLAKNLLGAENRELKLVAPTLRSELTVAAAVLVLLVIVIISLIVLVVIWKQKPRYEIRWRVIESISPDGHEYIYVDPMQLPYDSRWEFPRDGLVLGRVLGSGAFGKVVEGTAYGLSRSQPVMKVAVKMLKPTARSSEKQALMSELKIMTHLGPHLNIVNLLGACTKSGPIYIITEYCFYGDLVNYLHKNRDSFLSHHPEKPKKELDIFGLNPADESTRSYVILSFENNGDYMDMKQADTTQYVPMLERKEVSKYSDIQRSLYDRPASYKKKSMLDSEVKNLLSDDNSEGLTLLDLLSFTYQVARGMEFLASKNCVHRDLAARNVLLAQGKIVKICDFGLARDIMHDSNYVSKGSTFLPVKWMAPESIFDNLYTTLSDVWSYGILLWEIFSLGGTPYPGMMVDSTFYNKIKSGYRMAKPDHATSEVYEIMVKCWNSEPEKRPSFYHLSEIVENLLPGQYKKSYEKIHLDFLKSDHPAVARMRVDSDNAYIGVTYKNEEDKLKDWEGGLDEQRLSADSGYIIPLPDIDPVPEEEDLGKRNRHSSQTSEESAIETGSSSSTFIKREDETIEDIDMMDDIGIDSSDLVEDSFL
T1 sequence (P10721 26-976): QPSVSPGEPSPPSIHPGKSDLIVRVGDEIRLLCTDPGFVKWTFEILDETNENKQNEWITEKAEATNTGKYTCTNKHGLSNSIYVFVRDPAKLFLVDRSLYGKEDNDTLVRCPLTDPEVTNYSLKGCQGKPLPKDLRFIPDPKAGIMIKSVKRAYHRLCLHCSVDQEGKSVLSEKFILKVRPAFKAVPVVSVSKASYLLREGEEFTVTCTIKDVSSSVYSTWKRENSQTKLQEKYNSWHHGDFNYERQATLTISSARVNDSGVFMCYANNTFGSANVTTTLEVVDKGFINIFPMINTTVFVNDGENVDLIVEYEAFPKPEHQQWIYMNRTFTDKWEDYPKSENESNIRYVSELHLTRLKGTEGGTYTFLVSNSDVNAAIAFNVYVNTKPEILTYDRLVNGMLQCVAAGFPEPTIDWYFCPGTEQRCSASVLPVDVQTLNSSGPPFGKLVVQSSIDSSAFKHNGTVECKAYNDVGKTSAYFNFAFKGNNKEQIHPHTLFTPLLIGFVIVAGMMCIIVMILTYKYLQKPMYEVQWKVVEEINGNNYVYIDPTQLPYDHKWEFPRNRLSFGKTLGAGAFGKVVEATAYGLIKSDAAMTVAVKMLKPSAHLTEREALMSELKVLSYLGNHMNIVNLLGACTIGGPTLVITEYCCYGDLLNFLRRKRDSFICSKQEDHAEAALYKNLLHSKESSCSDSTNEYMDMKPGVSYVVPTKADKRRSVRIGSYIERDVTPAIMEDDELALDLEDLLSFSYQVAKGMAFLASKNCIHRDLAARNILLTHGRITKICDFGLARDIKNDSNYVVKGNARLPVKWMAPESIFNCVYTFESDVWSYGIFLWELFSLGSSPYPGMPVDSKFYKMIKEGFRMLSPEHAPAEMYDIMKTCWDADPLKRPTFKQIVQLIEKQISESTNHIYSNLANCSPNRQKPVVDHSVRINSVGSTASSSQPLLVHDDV

Row | IC50 (wtKIT) | IC50 (CSF-1R) | IC50 (PDGFRα) | Compound | MDCK-BCRP: Efflux Ratio [1] | MDCK-BCRP: Papp A-B [1] | Solubility (μM) (Kinetic solubility assay) | solubility at 24 h (Kinetic solubility assay; phosphate buffer, pH 7.4, aqueous buffer, kinetic from dmso stock)
1 | 50 to 500 nM | ≤ 50 nM | 5000 to 30000 nM | Cc1ccc(-c2noc([C@H]3CCC(=O)N3)n2)cc1NC(=O)c1cnc2ccccn12 (racemic) [Compound I-327] | 73.2 | 0.28 10^−6 cm/s | * (a solubility greater than 50 μM) | –
2 | ≤ 50 nM | 50 to 500 nM | 500 to 5000 nM | Cc1ccc(-c2noc(C3(C)CC(F)(F)CN3)n2)cc1NC(=O)c1cnc2ccccn12 (racemic) [Compound I-328] | 4.55 | 6.06 10^−6 cm/s | *** (a solubility greater than 2 μM and less than or equal to 10 μM) | –
3 | ≤ 50 nM | ≤ 50 nM | 50 to 500 nM | Cc1ccc(-c2noc(C3CCS(=O)(=O)N3)n2)cc1NC(=O)c1cnc2ccccn12 (racemic) [Compound I-330] | 24.9 | 1.28 10^−6 cm/s | ** (a solubility greater than 10 μM and less than or equal to 50 μM) | –
4 | ≤ 50 nM | 50 to 500 nM | 500 to 5000 nM | Cc1ccc(-c2noc(CC(C)O)n2)cc1NC(=O)c1cnc2ccccn12 (racemic) [Compound I-363] | 5.58 | 3.24 10^−6 cm/s | ** (a solubility greater than 10 μM and less than or equal to 50 μM) | –
5 | 50 to 500 nM | ≤ 50 nM | 5000 to 30000 nM | Cc1ccc(-c2noc(C(C)O)n2)cc1NC(=O)c1cnc2ccccn12 (racemic) [Compound I-364] | 9.18 | 2.19 10^−6 cm/s | * (a solubility greater than 50 μM) | –
6 | 50 to 500 nM | – | – | Cc1ccc(-c2noc(C3CCS(=O)(=O)C3)n2)cc1NC(=O)c1cnc2ccccn12 (racemic) [Compound I-389] | 54.3 | 0.87 10^−6 cm/s | ** (a solubility greater than 10 μM and less than or equal to 50 μM) | –
7 | ≤ 50 nM | 50 to 500 nM | 5000 to 30000 nM | Cc1ccc(-c2noc(C3CCN3)n2)cc1NC(=O)c1cnc2ccccn12 (racemic) [Compound I-394] | 23.2 | 1.42 10^−6 cm/s | * (a solubility greater than 50 μM) | –
8 | – | – | – | COc1ccn2c(C(=O)Nc3cc(-c4noc(CC(O)C(F)F)n4)ccc3C)cnc2c1 (single isomer, unassigned) [Compound I-76] | – | – | **** (a solubility less than or equal to 2 μM) | –
9 | – | – | – | COCCOCc1ccn2c(C(=O)Nc3cc(-c4noc([C@H]5C[C@@H]5F)n4)ccc3C)cnc2c1 [Compound I-84] | 2.28 | 20.7 10^−6 cm/s | ** (a solubility greater than 10 μM and less than or equal to 50 μM) | –
10 | – | – | – | Cc1ccc(-c2noc([C@H]3C[C@@H]3F)n2)cc1NC(=O)c1cnc2cc(OC(F)(F)F)ccn12 [Compound I-87] | 0.71 | 30.4 10^−6 cm/s | **** (a solubility less than or equal to 2 μM) | –
11 | – | – | – | COc1ccn2c(C(=O)Nc3cc(-c4noc(CC5CC(F)(F)C5)n4)ccc3C)cnc2c1 [Compound I-91] | 1.76 | 1.11 10^−6 cm/s | **** (a solubility less than or equal to 2 μM) | –
12 | – | – | – | CCOc1ccn2c(C(=O)Nc3cc(-c4noc([C@H]5C[C@@H]5F)n4)ccc3C)cnc2c1 [Compound I-93] | 1.16 | 21 10^−6 cm/s | **** (a solubility less than or equal to 2 μM) | –
13 | – | – | – | COc1ccn2c(C(=O)Nc3cc(-c4noc(C[C@H](C)O)n4)ccc3C)cnc2c1 [Compound I-94] | 8.04 | 5.19 10^−6 cm/s | **** (a solubility less than or equal to 2 μM) | –
14 | – | – | – | COc1ccn2c(C(=O)Nc3cc(-c4noc(C5CC(F)(F)C5)n4)ccc3C)cnc2c1 [Compound I-96] | 1.44 | 8.58 10^−6 cm/s | **** (a solubility less than or equal to 2 μM) | –
15 | – | – | – | Cc1ccc(-c2noc([C@H]3C[C@@H]3F)n2)cc1NC(=O)c1cnn2ccccc12 [Compound I-109] | 1.12 | 88.7 10^−6 cm/s | **** (a solubility less than or equal to 2 μM) | –
16 | – | – | – | COc1ccc2ncc(C(=O)Nc3cc(-c4noc(C[C@@H](C)O)n4)ccc3C)n2c1 [Compound I-119] | – | – | **** (a solubility less than or equal to 2 μM) | –
17 | – | – | – | Cc1ccc(-c2noc(CC(O)C(F)F)n2)cc1NC(=O)c1cnc2ccccn12 (stereo not shown) [Compound I-122] | 29.4 | 1.63 10^−6 cm/s | **** (a solubility less than or equal to 2 μM) | –
18 | ≤ 50 nM | – | – | Cc1ccc(-c2noc(C3(O)CC(F)(F)C3)n2)cc1NC(=O)c1cnc2ccccn12 [Compound I-380] | 14.2 | 1.21 10^−6 cm/s | **** (a solubility less than or equal to 2 μM) | –

Row | Compound | IC50 (wtKIT) | IC50 (CSF-1R) | IC50 (PDGFRα) | MDCK-BCRP: Efflux Ratio [1] | MDCK-BCRP: Papp A-B [1] | Solubility (μM) (Kinetic solubility assay) | solubility at 24 h (Kinetic solubility assay; phosphate buffer, pH 7.4, aqueous buffer, kinetic from dmso stock)
19 | Cc1ccc(-c2noc(C3CCC(F)C3)n2)cc1NC(=O)c1cnc2ccccn12 (racemic) [Compound I-319] | ≤ 50 nM | ≤ 50 nM | 50 to 500 nM | 1.02 | 13.1 10^−6 cm/s | *** (a solubility greater than 2 μM and less than or equal to 10 μM) | –
20 | Cc1ccc(-c2noc(C3CCC3F)n2)cc1NC(=O)c1cnc2ccccn12 (racemic) [Compound I-376] | ≤ 50 nM | ≤ 50 nM | 50 to 500 nM | 1.02 | 6.24 10^−6 cm/s | **** (a solubility less than or equal to 2 μM) | –
21 | Cc1ccc(-c2noc(C3CCC3F)n2)cc1NC(=O)c1cnc2ccccn12 (racemic) [Compound I-377] | ≤ 50 nM | ≤ 50 nM | 500 to 5000 nM | 0.98 | 7.81 10^−6 cm/s | *** (a solubility greater than 2 μM and less than or equal to 10 μM) | –
22 | Cc1ccc(-c2noc([C@H]3C[C@@H]3F)n2)cc1NC(=O)c1cnc2cc(COCC(C)(C)O)ccn12 [Compound I-71, N-[5-[5-[(1R,2S)-2-fluorocyclopropyl]-1,2,4-oxadiazol-3-yl]-2-methyl-phenyl]-7-[(2-hydroxy-2-methyl-propoxy)methyl]imidazo[1,2-a]pyridine-3-carboxamide] | ≤ 50 nM | ≤ 50 nM | 500 to 5000 nM | – | – | – | 10 to 50 µM (≈ 4.8 to 24 µg/mL)
23 | Cc1ccc(-c2cnc(N3CC(F)(F)C3)o2)cc1NC(=O)c1cnc2ccccn12 [Compound I-213] | ≤ 50 nM | – | – | 1.42 | 20.6 10^−6 cm/s | **** (a solubility less than or equal to 2 μM) | –
24 | Cc1ccc(-c2noc(CC(C)(C)O)n2)cc1NC(=O)c1cnc2ccccn12 [Compound I-336] | 50 to 500 nM | – | – | 19.9 | 1.92 10^−6 cm/s | * (a solubility greater than 50 μM) | –
